Assay results taken from patent US5153124A, “Hydroxyl-ML-236B derivatives, their preparation and use” (Sankyo Company Limited, priority 1985, dated 1992).

System: cholesterol biosynthesis
Test: Inhibitory activity against cholesterol biosynthesis (method of J. Biol. Chem. 234, 2835 (1959))
Format: biochemical
Conditions: method of Journal of Biological Chemistry, 234, 2835 (1959)
Excerpt: The inhibitory activities of certain of the compounds of the invention, in terms of the concentration in μg/ml required to inhibit cholesterol biosynthesis by 50% [measured by the method described in the Journal of Biological Chemistry, 234, 2835 (1959)], are as follows: […]

| SMILES | concentration required to inhibit cholesterol biosynthesis by 50% [µg/mL] |
| --- | --- |
| CC(O)[C@H](C)C(=O)O[C@H]1C[C@H](O)C=C2C=C[C@H](C)[C@H](CC[C@@H](O)C[C@@H](O)CC(=O)O)[C@H]21 (single isomer, unassigned) [Sodium 3",6'β-dihydroxy-ML-236B carboxylate, Substance A] | 0.0018 |
| CC[C@H](C)C(=O)O[C@H]1CCC=C2C=C[C@H](C)[C@H](CC[C@@H]3C[C@@H](O)CC(=O)O3)[C@H]21 [ML-236B lactone, reference compound] | 0.010 |
| CC(O)[C@H](C)C(=O)O[C@H]1CCC=C2C=C[C@H](C)[C@H](CC[C@@H]3C[C@@H](O)CC(=O)O3)[C@H]21 (some centres unmarked) [3"-hydroxy-ML-236B lactone, 3"-Hydroxy-ML-236B lactone] | 0.039 |
| CC(O)[C@H](C)C(=O)O[C@H]1C[C@H](O)C=C2C=C[C@H](C)[C@H](CC[C@@H](O)C[C@@H](O)CC(=O)O)[C@H]21 (single isomer, unassigned) [Sodium 3",6'β-dihydroxy-ML-236B carboxylate, Substance B] | 0.024 |
| CC(O)[C@H](C)C(=O)O[C@H]1CCC=C2C=C[C@H](C)[C@H](CC[C@@H](O)C[C@@H](O)CC(=O)O)[C@H]21 (some centres unmarked) [Sodium 3"-hydroxy-ML-236B carboxylate] | 0.0032 |
